According to PMC11597353, “Synthesis of Novel Gefitinib-Conjugated 1,2,3-Triazole Derivatives and Their Effect of Inducing DNA Damage and Apoptosis in Tumor Cells” (Molecules, 2024):
Read-outs that look alike come from different tables or passages of the source.

How the values were obtained:
[1] = tested on: MCF-7; set-up: method as in PMID 31078767; details: MCF-7, MTT method; cited from earlier work
[2] = tested on: MOLT-4; set-up: method as in PMID 31078767; details: MOLT-4, MTT method; cited from earlier work
[3] = tested on: HT-29; set-up: method as in PMID 31078767; details: HT-29, MTT method; cited from earlier work
[4] = tested on: breast cancer cells (MDA-MB-468); set-up: method as in PMID 31586710; details: 2.5 μM; cited from earlier work
[5] = tested on: HepG2 cells; set-up: method as in PMID 32745759; details: read-out: IC50, growth of HepG2 cells; cited from earlier work
[6] = tested on: VEGFR-2; set-up: method as in PMID 37611529; details: cited from earlier work
[7] = tested on: EGFR T790M; set-up: method as in PMID 37611529; details: cited from earlier work
[8] = tested on: HepG2 cells; set-up: method as in PMID 34237623, PMID 38675717; details: read-out: IC50, inhibitory activity against HepG2 cells; cited from earlier work
[9] = tested on: HepG2 cells; assay: CCK8 cell viability / IC50 assay on HepG2 cells; details: for % Cell Viability (10 μM): 72 h; for IC50: read-out: HepG2, IC50 (μM) 72 h

| IC50 [9] | melting point | SMILES | % Cell Viability (10 μM) [9] | also measured |
| --- | --- | --- | --- | --- |
|  |  | O=C1C=C(NCc2cn(Cc3ccc(C(F)(F)F)cc3)nn2)C(=O)c2ccccc21 [Compound 2] |  | IC50 [1]: 10.4 µM; IC50 [2]: 8.4 µM; IC50 [3]: 6.8 µM |
|  |  | O=C(C1=Cc2cc3ccccc3n2Cc2cnnn21)c1ccccc1 [Compound 3] |  | colony formation in breast cancer cells (MDA-MB-468) [4]: completely inhibited |
|  |  | Cc1cc(C)nc(NS(=O)(=O)c2ccc(-n3cc(CCc4nc5ccccc5s4)nn3)cc2)n1 [Compound 4] |  | IC50 [5]: 1.49 µM |
|  |  | NS(=O)(=O)c1ccc(-n2c(SCC(=O)Nc3cccc4ccccc34)nc3ccc(I)cc3c2=O)cc1 [Compound 7] |  | IC50 [6]: 0.0523 µM; IC50 [7]: 0.0728 µM |
|  |  | COc1cc(C(=O)c2nc3ccccc3c(=O)[nH]2)cc(OC)c1OC [Compound 8] |  | IC50 [8]: 1.22 µM |
| 5.49 ± 0.21 µM | 177 to 178 °C | COc1cc2ncnc(Nc3cccc(-c4cn(Cc5ccc(Br)cc5)nn4)c3)c2cc1OCCCN1CCOCC1 [Compound 11a, N-(3-(1-(4-bromobenzyl)-1H-1,2,3-triazol-4-yl)phenyl)-7-methoxy-6-(3-morpholinopropoxy)quinazolin-4-amine] | 7.07 ± 0.49% |  |
|  | 167 to 168 °C | COc1cc2ncnc(Nc3cccc(-c4cn(Cc5ccccc5C#N)nn4)c3)c2cc1OCCCN1CCOCC1 [Compound 11b, 2-((4-(3-((7-methoxy-6-(3-morpholinopropoxy)quinazolin-4-yl)amino)phenyl)-1H-1,2,3-triazol-1-yl)methyl)benzonitrile] | 59.50 ± 2.74% |  |
|  |  | COc1cc2ncnc(Nc3cccc(-c4cn(Cc5cc(Br)cc(Br)c5)nn4)c3)c2cc1OCCCN1CCOCC1 [Compound 11c, N-(3-(1-(3,5-dibromobenzyl)-1H-1,2,3-triazol-4-yl)phenyl)-7-methoxy-6-(3-morpholinopropoxy)quinazolin-4-amine] | 37.72 ± 2.38% |  |
|  | 168 to 169 °C | COc1cc2ncnc(Nc3cccc(-c4cn(Cc5ccc(C)cc5)nn4)c3)c2cc1OCCCN1CCOCC1 [Compound 11d, 7-methoxy-N-(3-(1-(4-methylbenzyl)-1H-1,2,3-triazol-4-yl)phenyl)-6-(3-morpholinopropoxy)quinazolin-4-amine] | 36.48 ± 2.89% |  |
| 4.04 ± 0.21 µM |  | COc1cc2ncnc(Nc3cccc(-c4cn(Cc5cc(F)ccc5Br)nn4)c3)c2cc1OCCCN1CCOCC1 [Compound 11e, N-(3-(1-(2-bromo-5-fluorobenzyl)-1H-1,2,3-triazol-4-yl)phenyl)-7-methoxy-6-(3-morpholinopropoxy)quinazolin-4-amine] | 7.03 ± 0.16% |  |
| 5.15 ± 0.31 µM | 169 to 170 °C | COc1cc2ncnc(Nc3cccc(-c4cn(Cc5ccc(Br)cc5F)nn4)c3)c2cc1OCCCN1CCOCC1 [Compound 11f, N-(3-(1-(4-bromo-2-fluorobenzyl)-1H-1,2,3-triazol-4-yl)phenyl)-7-methoxy-6-(3-morpholinopropoxy)quinazolin-4-amine] | 5.72 ± 0.40% |  |
| 5.23 ± 0.2 µM | 179 to 181 °C | COc1cc2ncnc(Nc3cccc(-c4cn(Cc5ccc(F)c(Cl)c5)nn4)c3)c2cc1OCCCN1CCOCC1 [Compound 11g, N-(3-(1-(3-chloro-4-fluorobenzyl)-1H-1,2,3-triazol-4-yl)phenyl)-7-methoxy-6-(3-morpholinopropoxy)quinazolin-4-amine] | 6.50 ± 0.88% |  |
| 3.91 ± 0.08 µM | 177 to 180 °C | COc1cc2ncnc(Nc3cccc(-c4cn(Cc5c(F)cccc5Cl)nn4)c3)c2cc1OCCCN1CCOCC1 [Compound 11h, N-(3-(1-(2-chloro-6-fluorobenzyl)-1H-1,2,3-triazol-4-yl)phenyl)-7-methoxy-6-(3-morpholinopropoxy)quinazolin-4-amine] | 6.80 ± 0.14% |  |
|  |  | COc1cc2ncnc(Nc3cccc(-c4cn(Cc5ccccc5[N+](=O)[O-])nn4)c3)c2cc1OCCCN1CCOCC1 [Compound 11i, 7-methoxy-6-(3-morpholinopropoxy)-N-(3-(1-(2-nitrobenzyl)-1H-1,2,3-triazol-4-yl)phenyl)quinazolin-4-amine] | 70.10 ± 3.40% |  |
|  | 171 to 173 °C | COc1cc2ncnc(Nc3cccc(-c4cn(Cc5ccc([N+](=O)[O-])cc5)nn4)c3)c2cc1OCCCN1CCOCC1 [Compound 11j, 7-methoxy-6-(3-morpholinopropoxy)-N-(3-(1-(4-nitrobenzyl)-1H-1,2,3-triazol-4-yl)phenyl)quinazolin-4-amine] | 47.33 ± 2.17% |  |
| 6.21 ± 0.24 µM | 184 to 186 °C | COc1cc2ncnc(Nc3cccc(-c4cn(Cc5ccccc5F)nn4)c3)c2cc1OCCCN1CCOCC1 [Compound 11k, N-(3-(1-(2-fluorobenzyl)-1H-1,2,3-triazol-4-yl)phenyl)-7-methoxy-6-(3-morpholinopropoxy)quinazolin-4-amine] | 14.72 ± 2.29% |  |
| 4.53 ± 0.37 µM |  | COc1cc2ncnc(Nc3cccc(-c4cn(Cc5ccc(C(F)(F)F)cc5)nn4)c3)c2cc1OCCCN1CCOCC1 [Compound 11l, 7-methoxy-6-(3-morpholinopropoxy)-N-(3-(1-(4-(trifluoromethyl)benzyl)-1H-1,2,3-triazol-4-yl)phenyl)quinazolin-4-amine] | 5.85 ± 1.15% |  |
| 6.1 ± 0.06 µM | 164 to 165 °C | COc1cc2ncnc(Nc3cccc(-c4cn(Cc5cccc(Cl)c5)nn4)c3)c2cc1OCCCN1CCOCC1 [Compound 11n, N-(3-(1-(3-chlorobenzyl)-1H-1,2,3-triazol-4-yl)phenyl)-7-methoxy-6-(3-morpholinopropoxy)quinazolin-4-amine] | 7.68 ± 0.34% |  |
| 5.14 ± 0.25 µM | 165 to 167 °C | COc1cc2ncnc(Nc3cccc(-c4cn(Cc5ccc(Cl)cc5)nn4)c3)c2cc1OCCCN1CCOCC1 [Compound 11o, N-(3-(1-(4-chlorobenzyl)-1H-1,2,3-triazol-4-yl)phenyl)-7-methoxy-6-(3-morpholinopropoxy)quinazolin-4-amine] | 8.06 ± 0.88% |  |
| 10.1 ± 0.14 µM | 169 to 171 °C | COc1cc2ncnc(Nc3cccc(-c4cn(Cc5ccccc5C)nn4)c3)c2cc1OCCCN1CCOCC1 [Compound 11p, 7-methoxy-N-(3-(1-(2-methylbenzyl)-1H-1,2,3-triazol-4-yl)phenyl)-6-(3-morpholinopropoxy)quinazolin-4-amine] | 17.36 ± 1.24% |  |
| 5.38 ± 0.57 µM | 172 to 173 °C | COc1cc2ncnc(Nc3cccc(-c4cn(Cc5cc(C)cc(C)c5)nn4)c3)c2cc1OCCCN1CCOCC1 [Compound 11q, N-(3-(1-(3,5-dimethylbenzyl)-1H-1,2,3-triazol-4-yl)phenyl)-7-methoxy-6-(3-morpholinopropoxy)quinazolin-4-amine] | 7.14 ± 0.95% |  |
| 6.68 ± 0.11 µM | 164 to 166 °C | COc1cc2ncnc(Nc3cccc(-c4cn(Cc5cc(F)ccc5C#N)nn4)c3)c2cc1OCCCN1CCOCC1 [Compound 11r, 4-fluoro-2-((4-(3-((7-methoxy-6-(3-morpholinopropoxy)quinazolin-4-yl)amino)phenyl)-1H-1,2,3-triazol-1-yl)methyl)benzonitrile] | 9.11 ± 1.63% |  |
|  | 167 to 170 °C | COc1cc(Cn2cc(-c3cccc(Nc4ncnc5cc(OC)c(OCCCN6CCOCC6)cc45)c3)nn2)cc(OC)c1 [Compound 11s, N-(3-(1-(3,5-dimethoxybenzyl)-1H-1,2,3-triazol-4-yl)phenyl)-7-methoxy-6-(3-morpholinopropoxy)quinazolin-4-amine] | 22.89 ± 1.97% |  |
|  |  | COc1cc2ncnc(Nc3ccc(F)c(Cl)c3)c2cc1OCCCN1CCOCC1 [Gefitinib] | 31.03 ± 2.42% |  |
